Source: patent US20060069132A1, “Azolecarboxamide herbicides” (priority 2004, published 2006)

How the values were obtained:
ducksalad = test: Test C flooded paddy test; format: in vivo, Heteranthera limosa
Surinam grass = test: Test C pre-/postemergence herbicide test; format: in vivo, Urochloa decumbens
Method in brief: (§1)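 Greenhouse-grown plants were evaluated visually 12 to 14 days after treatment, with 100 meaning complete control and 0 no effect. Application was preemergence, or postemergence at 2 to 18 cm.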

velvetleaf = test: Test C pre-/postemergence herbicide test; format: in vivo, Abutilon theophrasti
Method in brief: as §1

morningglory = test: Test C pre-/postemergence herbicide test; format: in vivo, Ipomoea coccinea; set-up: key to Plant response rating, Morningglory: 0 = no effect, 100 = complete control
Method in brief: as §1

goosegrass = test: Test C pre-/postemergence herbicide test; format: in vivo, Eleusine indica
Method in brief: as §1

corn = test: Test C pre-/postemergence herbicide test; format: in vivo, Zea mays
Method in brief: as §1

bermudagrass = test: Test C pre-/postemergence herbicide test; format: in vivo, Cynodon dactylon
Method in brief: as §1

common ragweed = test: Test C pre-/postemergence herbicide test; format: in vivo, Ambrosia elatior; set-up: key to Plant response rating, Ragweed: 0 = no effect, 100 = complete control
Method in brief: as §1

barnyardgrass = test: Test C flooded paddy test; format: in vivo, Echinochloa crus-galli
Method in brief: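 After a postemergence application at 1 to 4 leaves (plants 2–18 cm high), or at 2 leaves for barnyardgrass in flooded paddy, plants stayed in the greenhouse for 12 to 14 days. Damage was then judged visually relative to control plants, with 100 indicating complete control.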

johnsongrass = test: Test C pre-/postemergence herbicide test; format: in vivo, Sorghum halepense
Method in brief: as §1

[1] = 125 g ai/ha, scale 0 to 100 (0 no effect, 100 complete control)
[2] = 250 g ai/ha, scale of 0 to 100, 0 is no effect, 100 is complete control
[3] = 500 g ai/ha, visual rating after 12 to 14 days, scale 0 to 100 (0 no effect, 100 complete control)
[4] = 62 g ai/ha, preemergence, scale 0 to 100
[5] = 250 g ai/ha, scale 0-100, preemergence
[6] = 500 g ai/ha, scale 0 to 100 (0 no effect, 100 complete control), visual, 12 to 14 days, preemergence

## CCNC(=O)c1ccc(F)c(NC(=O)C2CN(C(C)(C)C)N=C2CC)c1 (centres unmarked) [Compound 336, 1-(1,1-dimethylethyl)-3-ethyl-N-[5-[(ethylamino)carbonyl]-2-fluorophenyl]-4,5-dihydro-1H-pyrazole-4-carboxamide]
ducksalad; Heteranthera limosa, 62 g ai/ha, scale 0 to 100, read-out: Ducksalad plant response rating
  pest or weed control at 62 g/ha: 45%
ducksalad; Heteranthera limosa, 125 g ai/ha, scale 0 to 100 (0 no effect, 100 complete control), read-out: Ducksalad plant response rating
  pest or weed control at 125 g/ha: 55%
ducksalad; Heteranthera limosa, 250 g ai/ha, scale of 0 to 100, 0 is no effect, 100 is complete control, read-out: Ducksalad plant response rating
  pest or weed control at 250 g/ha: 75%
ducksalad; Heteranthera limosa, 500 g ai/ha, visual rating after 12 to 14 days, scale 0 to 100 (0 no effect, 100 complete control), read-out: Plant response rating, Ducksalad
  pest or weed control at 500 g/ha: 90%
Surinam grass; Urochloa decumbens, pre-emergence, 312 h, 62 g ai/ha, preemergence, scale 0 to 100, read-out: Plant response rating, Surinam Grass
  pest or weed control at 62 g/ha: 50%
Surinam grass; Urochloa decumbens, pre-emergence, 312 h, 250 g ai/ha, scale 0-100, read-out: Plant response rating, Surinam Grass
  pest or weed control at 250 g/ha: 100%
Surinam grass; Urochloa decumbens, pre-emergence, 312 h, 500 g ai/ha, scale 0 to 100 (0 no effect, 100 complete control), visual, 12 to 14 days, read-out: Plant response rating, Surinam Grass
  pest or weed control at 500 g/ha: 100%
velvetleaf; Abutilon theophrasti, pre-emergence, 62 g ai/ha, preemergence, scale 0 to 100, read-out: Plant response rating, Velvetleaf
  pest or weed control at 62 g/ha: 5%
velvetleaf; Abutilon theophrasti, pre-emergence, 250 g ai/ha, scale 0-100, read-out: Plant response rating, Velvetleaf
  pest or weed control at 250 g/ha: 100%
velvetleaf; Abutilon theophrasti, pre-emergence, 500 g ai/ha, scale 0 to 100 (0 no effect, 100 complete control), visual, 12 to 14 days, read-out: Plant response rating, Velvetleaf
  pest or weed control at 500 g/ha: 100%
morningglory; Ipomoea, pre-emergence, 62 g ai/ha, preemergence, scale 0 to 100, read-out: Plant response rating, Morningglory
  pest or weed control at 62 g/ha: 5%
morningglory; Ipomoea, pre-emergence, 125 g ai/ha, scale 0 (no effect) to 100 (complete control), visual, 12 to 14 days, read-out: Plant response rating, Morningglory
  pest or weed control at 125 g/ha: 70%
morningglory; Ipomoea, pre-emergence, 250 g ai/ha, scale 0-100, read-out: Plant response rating, Morningglory
  pest or weed control at 250 g/ha: 100%
morningglory; Ipomoea, pre-emergence, 500 g ai/ha, scale 0 to 100 (0 no effect, 100 complete control), visual, 12 to 14 days, read-out: Plant response rating, Morningglory
  pest or weed control at 500 g/ha: 100%
goosegrass; Eleusine indica, pre-emergence, 312 h, 62 g ai/ha, preemergence, scale 0 to 100, read-out: Plant response rating, Goosegrass
  pest or weed control at 62 g/ha: 95%
goosegrass; Eleusine indica, pre-emergence, 312 h, 125 g ai/ha, scale 0 (no effect) to 100 (complete control), visual, 12 to 14 days, read-out: Plant response rating, Goosegrass
  pest or weed control at 125 g/ha: 100%
goosegrass; Eleusine indica, pre-emergence, 312 h, 250 g ai/ha, scale 0-100, read-out: Plant response rating, Goosegrass
  pest or weed control at 250 g/ha: 100%
goosegrass; Eleusine indica, pre-emergence, 312 h, 500 g ai/ha, scale 0 to 100 (0 no effect, 100 complete control), visual, 12 to 14 days, read-out: Plant response rating, Goosegrass
  pest or weed control at 500 g/ha: 100%
corn; Zea mays, pre-emergence, 312 h, 62 g ai/ha, preemergence, scale 0 to 100
  Corn plant response rating (crop injury, 0 = no effect, 100 = complete kill) at 62 g/ha: 10%
corn; Zea mays, pre-emergence, 312 h, 125 g ai/ha, scale 0 (no effect) to 100 (complete control), visual, 12 to 14 days
  Corn plant response rating (crop injury, 0 = no effect, 100 = complete kill) at 125 g/ha: 35%
corn; Zea mays, pre-emergence, 312 h, 250 g ai/ha, scale 0-100
  Corn plant response rating (crop injury, 0 = no effect, 100 = complete kill) at 250 g/ha: 85%
corn; Zea mays, pre-emergence, 312 h, 500 g ai/ha, scale 0 to 100 (0 no effect, 100 complete control), visual, 12 to 14 days
  Corn plant response rating (crop injury, 0 = no effect, 100 = complete kill) at 500 g/ha: 85%
bermudagrass; Cynodon dactylon, pre-emergence, 312 h, 62 g ai/ha, preemergence, scale 0 to 100, 0 no effect, 100 complete control, read-out: Plant response rating, Bermudagrass
  pest or weed control at 62 g/ha: 95%
bermudagrass; Cynodon dactylon, pre-emergence, 312 h, 125 g ai/ha, scale 0 (no effect) to 100 (complete control), visual, 12 to 14 days, read-out: Plant response rating, Bermudagrass
  pest or weed control at 125 g/ha: 100%
bermudagrass; Cynodon dactylon, pre-emergence, 312 h, 250 g ai/ha, scale 0-100, read-out: Plant response rating, Bermudagrass
  pest or weed control at 250 g/ha: 100%
bermudagrass; Cynodon dactylon, pre-emergence, 312 h, 500 g ai/ha, scale 0 to 100 (0 no effect, 100 complete control), visual, 12 to 14 days, read-out: Plant response rating, Bermudagrass
  pest or weed control at 500 g/ha: 100%
Common ragweed; Ambrosia artemisiifolia, pre-emergence, 62 g ai/ha, preemergence, scale 0 to 100, read-out: Plant response rating, Ragweed
  pest or weed control at 62 g/ha: 30%
Common ragweed; Ambrosia artemisiifolia, pre-emergence, 250 g ai/ha, scale 0-100, read-out: Plant response rating, Ragweed
  pest or weed control at 250 g/ha: 80%
Common ragweed; Ambrosia artemisiifolia, pre-emergence, 500 g ai/ha, scale 0 to 100 (0 no effect, 100 complete control), visual, 12 to 14 days, read-out: Plant response rating, Ragweed
  pest or weed control at 500 g/ha: 100%
barnyardgrass; Echinochloa crus-galli, 62 g ai/ha, scale 0 to 100 (0 no effect, 100 complete control), read-out: Barnyardgrass plant response rating
  pest or weed control at 62 g/ha: 0%
barnyardgrass; Echinochloa crus-galli, 125 g ai/ha, scale 0 to 100 (0 no effect, 100 complete control), read-out: Barnyardgrass plant response rating
  pest or weed control at 125 g/ha: 0%
barnyardgrass; Echinochloa crus-galli, 250 g ai/ha, scale of 0 to 100, 0 is no effect, 100 is complete control, read-out: Barnyardgrass plant response rating
  pest or weed control at 250 g/ha: 60%
barnyardgrass; Echinochloa crus-galli, 500 g ai/ha, visual rating after 12 to 14 days, scale 0 to 100 (0 no effect, 100 complete control), read-out: Plant response rating, Barnyardgrass
  pest or weed control at 500 g/ha: 80%
johnsongrass; Sorghum halepense, pre-emergence, 62 g ai/ha, preemergence, scale 0 to 100, read-out: Plant response rating, Johnsongrass
  pest or weed control at 62 g/ha: 80%
johnsongrass; Sorghum halepense, pre-emergence, 125 g ai/ha, scale 0 (no effect) to 100 (complete control), visual, 12 to 14 days, read-out: Plant response rating, Johnsongrass
  pest or weed control at 125 g/ha: 95%
johnsongrass; Sorghum halepense, pre-emergence, 250 g ai/ha, scale 0-100, read-out: Plant response rating, Johnsongrass
  pest or weed control at 250 g/ha: 100%
johnsongrass; Sorghum halepense, pre-emergence, 500 g ai/ha, scale 0 to 100 (0 no effect, 100 complete control), visual, 12 to 14 days, read-out: Plant response rating, Johnsongrass
  pest or weed control at 500 g/ha: 100%

## CCc1nn(C(C)(C)CC)nc1C(=O)Nc1cccc(C(=O)N(C)C)c1 [Compound 372]
ducksalad; 62 g ai/ha, scale 0 to 100
  Ducksalad plant response rating: 65
ducksalad; [1]
  Ducksalad plant response rating: 85
ducksalad; [2]
  Ducksalad plant response rating: 85
ducksalad; [3]
  Plant response rating, Ducksalad: 85
Surinam grass; [4]
  Plant response rating, Surinam Grass: 50
Surinam grass; 125 g ai/ha, preemergence
  Plant response rating (0 = no effect, 100 = complete control), Surinam Grass: 85
Surinam grass; [5]
  Plant response rating, Surinam Grass: 85
Surinam grass; [6]
  Plant response rating, Surinam Grass: 100
velvetleaf; [4]
  Plant response rating, Velvetleaf: 50
velvetleaf; 125 g ai/ha, preemergence
  Plant response rating (0 = no effect, 100 = complete control), Velvetleaf: 100
velvetleaf; [5]
  Plant response rating, Velvetleaf: 100
velvetleaf; [6]
  Plant response rating, Velvetleaf: 100
morningglory; [4]
  Plant response rating, Morningglory: 0
morningglory; 125 g ai/ha, preemergence
  Plant response rating (0 = no effect, 100 = complete control), Morningglory: 5
morningglory; [5]
  Plant response rating, Morningglory: 40
morningglory; [6]
  Plant response rating, Morningglory: 80
goosegrass; [4]
  Plant response rating, Goosegrass: 70
goosegrass; 125 g ai/ha, preemergence
  Plant response rating (0 = no effect, 100 = complete control), Goosegrass: 80
goosegrass; [5]
  Plant response rating, Goosegrass: 90
goosegrass; [6]
  Plant response rating, Goosegrass: 90
corn; [4]
  Plant response rating, Corn: 60
corn; 125 g ai/ha, preemergence
  Plant response rating (0 = no effect, 100 = complete control), Corn: 60
corn; [5]
  Plant response rating, Corn: 65
corn; [6]
  Plant response rating, Corn: 65
bermudagrass; 62 g ai/ha, preemergence, scale 0 to 100, 0 no effect, 100 complete control
  Plant response rating, Bermudagrass: 75
bermudagrass; 125 g ai/ha, preemergence
  Plant response rating (0 = no effect, 100 = complete control), Bermudagrass: 98
bermudagrass; [5]
  Plant response rating, Bermudagrass: 98
bermudagrass; [6]
  Plant response rating, Bermudagrass: 100
Common ragweed; [4]
  Plant response rating, Ragweed: 70
Common ragweed; 125 g ai/ha, preemergence
  Plant response rating (0 = no effect, 100 = complete control), Ragweed: 90
Common ragweed; [5]
  Plant response rating, Ragweed: 100
Common ragweed; [6]
  Plant response rating, Ragweed: 100
barnyardgrass; 62 g ai/ha, scale 0 to 100 (0 no effect, 100 complete control)
  Barnyardgrass plant response rating: 65
barnyardgrass; [1]
  Barnyardgrass plant response rating: 70
barnyardgrass; [2]
  Barnyardgrass plant response rating: 75
barnyardgrass; [3]
  Plant response rating, Barnyardgrass: 80
johnsongrass; [4]
  Plant response rating, Johnsongrass: 80
johnsongrass; 125 g ai/ha, preemergence
  Plant response rating (0 = no effect, 100 = complete control), Johnsongrass: 80
johnsongrass; [5]
  Plant response rating, Johnsongrass: 90
johnsongrass; [6]
  Plant response rating, Johnsongrass: 90
